# Experimental data from patent US10376520B2, “Methods for the treatment of cardiovascular disorders” (Galapagos NV, priority 2015, dated 2019).
# Tested on: RA patients
# Test: Total cholesterol determination, Study 1 (RA patients with inadequate response to methotrexate, add-on to MTX)
# Type: in vivo, human
# Protocol: Double-blind, placebo-controlled add on study in subjects with moderately to severely active RA who have an inadequate response to methotrexate (MTX) (oral or parenteral).
# 595 subjects randomized to one of 6 dose regimens of Compound 1 (dosed as a [Compound 1:HCl:3H2O]) (3 dose levels administered either once or twice daily) or placebo on top of each subject's stable dose of MTX.
# Compound 1 (dosed as a [Compound 1:HCl:3H2O]) is dosed for twelve weeks once daily (q.d.) (50 mg, 100 mg or 200 mg) or twice daily (b.i.d.) (25 mg, 50 mg or 100 mg); or placebo.
# At Week 12, the subjects on placebo who have not achieved 20% improvement in swollen joint count (SJC66) and tender joint count (TJC68) are re-randomized automatically to receive Compound 1 (dosed as a [Compound 1:HCl:3H2O]) either at 100 mg q.d. or 50 mg b.i.d. doses in a blinded fashion; subjects on 50 mg q.d. who have not achieved 20% improvement in SJC66 and TJC68 will be assigned to 100 mg q.d. and subjects on 25 mg b.i.d. that have not achieved a 20% improvement in SJC66 and TJC68 will be assigned to 50 mg b.i.d. Subjects who switch treatment at week 12 are handled as if they discontinued at week 12 for the purpose of statistical analysis, whereas subjects in the other groups will maintain their randomized treatment until Week 24.
# This method is based on the determination of Δ^4 cholestenone after enzymatic cleavage of the cholesterol ester by cholesterol esterase, conversion of cholesterol by cholesterol oxidase, and subsequent measurement by the Trinder reaction of the hydrogen peroxide formed (Allain et al., 1974).
# Cholesterol esters are cleaved by the action of cholesterol esterase to yield free cholesterol and fatty acids. Cholesterol oxidase then catalyzes the oxidation of cholesterol to cholest-4-en-3-one and hydrogen peroxide. In the presence of peroxidase, the hydrogen peroxide formed effects the oxidative coupling of phenol and 4-aminophenazone to form a red quinone-imine dye. The color intensity of the dye formed is directly proportional to the cholesterol concentration. It is determined by measuring the increase in absorbance.
# Human serum and plasma samples cholesterol determination was done on a Roche/Hitachi Cobas c 701/702 system which automatically calculate the analyte concentration of each sample.
# [1] = Study 1 12 weeks results, 2 x 25 mg b.i.d., week 2
# [2] = Study 1 12 weeks results, 2 x 25 mg b.i.d., week 4
# [3] = Study 1 12 weeks results, 2 x 25 mg b.i.d., week 8
# [4] = Study 1 12 weeks results, 2 x 25 mg b.i.d., week 12
# [5] = Study 1 12 weeks results, 2 x 50 mg b.i.d., week 1
# [6] = Study 1 12 weeks results, 2 x 50 mg b.i.d., week 2
# [7] = Study 1 12 weeks results, 2 x 50 mg b.i.d., week 4
# [8] = Study 1 12 weeks results, 2 x 50 mg b.i.d., week 8
# [9] = Study 1 12 weeks results, 2 x 50 mg b.i.d., week 12
# [10] = Study 1 12 weeks results, 2 x 100 mg b.i.d., week 1
# [11] = Study 1 12 weeks results, 2 x 100 mg b.i.d., week 2
# [12] = Study 1 12 weeks results, 2 x 100 mg b.i.d., week 4
# [13] = Study 1 12 weeks results, 2 x 100 mg b.i.d., week 8
# [14] = Study 1 12 weeks results, 2 x 100 mg b.i.d., week 12
# [15] = Study 1 24 weeks results, continued 50 mg q.d., week 1
# [16] = Study 1 24 weeks results, continued 50 mg q.d., week 2
# [17] = Study 1 24 weeks results, continued 50 mg q.d., week 4
# [18] = Study 1 24 weeks results, continued 50 mg q.d., week 8
# [19] = Study 1 24 weeks results, continued 50 mg q.d., week 12
# [20] = Study 1 24 weeks results, continued 50 mg q.d., week 16
# [21] = Study 1 24 weeks results, continued 50 mg q.d., week 20
# [22] = Study 1 24 weeks results, continued 50 mg q.d., week 24
structure (smiles),measurement,setting,value
"O=C(Nc1nc2cccc(-c3ccc(CN4CCS(=O)(=O)CC4)cc3)n2n1)C1CC1 [Compound 1, cyclopropanecarboxylic acid {5-[4-(1,1-dioxo-thiomorpholin-4-ylmethyl)-phenyl]-[1,2,4]triazolo[1,5-a]pyridin-2yl}-amide]",[total cholesterol] Mean CFB,"Study 1 12 weeks results, 2 x 25 mg b.i.d., week 1",0.1 mmol/L
same,[Total cholesterol] Median CFB,[1],0.10 mmol/L
same,[total cholesterol] Mean CFB,[1],0.1 mmol/L
same,[Total cholesterol] Median CFB,[2],0.05 mmol/L
same,[total cholesterol] Mean CFB,[2],0.1 mmol/L
same,[Total cholesterol] Median CFB,[3],0.05 mmol/L
same,[total cholesterol] Mean CFB,[3],0.1 mmol/L
same,[Total cholesterol] Median CFB,[4],0.13 mmol/L
same,[total cholesterol] Mean CFB,[4],0.2 mmol/L
same,[Total cholesterol] Median CFB,[5],0.21 mmol/L
same,[total cholesterol] Mean CFB,[5],0.1 mmol/L
same,[Total cholesterol] Median CFB,[6],0.18 mmol/L
same,[total cholesterol] Mean CFB,[6],0.1 mmol/L
same,[Total cholesterol] Median CFB,[7],0.28 mmol/L
same,[total cholesterol] Mean CFB,[7],0.3 mmol/L
same,[Total cholesterol] Median CFB,[8],0.22 mmol/L
same,[total cholesterol] Mean CFB,[8],0.2 mmol/L
same,[Total cholesterol] Median CFB,[9],0.23 mmol/L
same,[total cholesterol] Mean CFB,[9],0.2 mmol/L
same,[Total cholesterol] Median CFB,[10],0.28 mmol/L
same,[total cholesterol] Mean CFB,[10],0.3 mmol/L
same,[Total cholesterol] Median CFB,[11],0.31 mmol/L
same,[total cholesterol] Mean CFB,[11],0.4 mmol/L
same,[Total cholesterol] Median CFB,[12],0.45 mmol/L
same,[total cholesterol] Mean CFB,[12],0.4 mmol/L
same,[Total cholesterol] Median CFB,[13],0.55 mmol/L
same,[total cholesterol] Mean CFB,[13],0.6 mmol/L
same,[Total cholesterol] Median CFB,[14],0.80 mmol/L
same,[total cholesterol] Mean CFB,[14],0.6 mmol/L
same,[total cholesterol] Mean CFB,"Study 1 24 weeks results, continued 25 mg b.i.d, week 1",0.11 mmol/L
same,[total cholesterol] Mean CFB,"Study 1 24 weeks results, continued 25 mg b.i.d, week 2",0.12 mmol/L
same,[total cholesterol] Mean CFB,"Study 1 24 weeks results, continued 25 mg b.i.d, week 4",0.14 mmol/L
same,[total cholesterol] Mean CFB,"Study 1 24 weeks results, continued 25 mg b.i.d, week 8",0.15 mmol/L
same,[total cholesterol] Mean CFB,"Study 1 24 weeks results, continued 25 mg b.i.d, week 12",0.26 mmol/L
same,[total cholesterol] Mean CFB,"Study 1 24 weeks results, continued 25 mg b.i.d, week 16",0.20 mmol/L
same,[total cholesterol] Mean CFB,"Study 1 24 weeks results, continued 25 mg b.i.d, week 20",0.27 mmol/L
same,[total cholesterol] Mean CFB,"Study 1 24 weeks results, continued 25 mg b.i.d, week 24",0.24 mmol/L
same,[total cholesterol] Mean CFB,"Study 1 24 weeks results, continued 50 mg b.i.d., week 1",0.15 mmol/L
same,[total cholesterol] Mean CFB,"Study 1 24 weeks results, continued 50 mg b.i.d., week 2",0.14 mmol/L
same,[total cholesterol] Mean CFB,"Study 1 24 weeks results, continued 50 mg b.i.d., week 4",0.28 mmol/L
same,[total cholesterol] Mean CFB,"Study 1 24 weeks results, continued 50 mg b.i.d., week 8",0.21 mmol/L
same,[total cholesterol] Mean CFB,"Study 1 24 weeks results, continued 50 mg b.i.d., week 12",0.23 mmol/L
same,[total cholesterol] Mean CFB,"Study 1 24 weeks results, continued 50 mg b.i.d., week 16",0.24 mmol/L
same,[total cholesterol] Mean CFB,"Study 1 24 weeks results, continued 50 mg b.i.d., week 20",0.32 mmol/L
same,[total cholesterol] Mean CFB,"Study 1 24 weeks results, continued 50 mg b.i.d., week 24",0.34 mmol/L
same,[Total cholesterol] Median CFB,[15],0.00 mmol/L
same,[total cholesterol] Mean CFB,[15],0.03 mmol/L
same,[Total cholesterol] Median CFB,[16],0.00 mmol/L
same,[total cholesterol] Mean CFB,[16],-0.01 mmol/L
same,[Total cholesterol] Median CFB,[17],0.05 mmol/L
same,[total cholesterol] Mean CFB,[17],0.05 mmol/L
same,[Total cholesterol] Median CFB,[18],0.20 mmol/L
same,[total cholesterol] Mean CFB,[18],0.14 mmol/L
same,[Total cholesterol] Median CFB,[19],0.25 mmol/L
same,[total cholesterol] Mean CFB,[19],0.24 mmol/L
same,[Total cholesterol] Median CFB,[20],0.25 mmol/L
same,[total cholesterol] Mean CFB,[20],0.21 mmol/L
same,[Total cholesterol] Median CFB,[21],0.25 mmol/L
same,[total cholesterol] Mean CFB,[21],0.20 mmol/L
same,[Total cholesterol] Median CFB,[22],0.30 mmol/L
same,[total cholesterol] Mean CFB,[22],0.28 mmol/L
same,[total cholesterol] Mean CFB,"Study 1 24 weeks results, continued 100 mg b.i.d., week 1",0.30 mmol/L
